In patent US20110098296A1, “Thiazole And Oxazole Kinase Inhibitors” (priority 2007, published 2011):

Assays:
[1] = test system: A375P F11s tumor cells; assay: Method C: Cell Growth Inhibition Assay (CellTiter-Glo), A375P F11s; format: cell-based; conditions: Homo sapiens, 72 h, 3 days, 4-parameter fit
Procedure, shortened: (§1)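 Cells plated at 500 cells/well, dosed next day with 10-point 1:3 dilution series (0.2% final DMSO) and grown 3 days at 37 °C, 5% CO2. CellTiter-Glo luminescence (total ATP) served as cell-number surrogate; inhibition relative to DMSO controls, IC50 interpolated by 4-parameter fit.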

[2] = test system: HT-29 tumor cells; assay: Method C: Cell Growth Inhibition Assay (CellTiter-Glo), HT-29; format: cell-based; conditions: Homo sapiens, HT-29, 72 h, 3 days, 4-parameter fit
Procedure, shortened: as §1

[3] = target: B-Raf (Homo sapiens, UniProt P15056); assay: B-Raf Accelerated MEK ATPase assay (BRAMA); format: biochemical; conditions: Method (A): BRAMA, kinetic read
Procedure: Compounds of the present invention were tested for B-Raf protein serine kinase inhibitory activity in a B-Raf Accelerated MEK ATPase assay (BRAMA). The BRAMA assay is a high sensitivity assay which measures an intrinsic MEK-mediated ATP hydrolysis uncoupled from downstream ERK phosphorylation by coupling the formation of ADP to NADH oxidation through the enzymes pyruvate kinase and lactate dehydrogenase. When ADP production is initiated by addition of catalytic amounts of an activated Raf enzyme and non-phosphorylated MEK, one observes robust ADP production concomitant with Raf-mediated phosphorylation of MEK.
Method A: Specific details of the assay are disclosed in: C. Rominger, M. Schaber, E. May. Assay for B-Raf Activity Based on Intrinsic MEK ATPase Activity. Statutory Invention Registration Ser. No. 11/084,993 (March, 2005). Method B: The method is the same as method A, but includes the following changes: 1) the assay was performed with a final MEK concentration of 150 nM and 2) the assay was read as single end point instead of a kinetic read.

Sequence of B-Raf (P15056 whole entry): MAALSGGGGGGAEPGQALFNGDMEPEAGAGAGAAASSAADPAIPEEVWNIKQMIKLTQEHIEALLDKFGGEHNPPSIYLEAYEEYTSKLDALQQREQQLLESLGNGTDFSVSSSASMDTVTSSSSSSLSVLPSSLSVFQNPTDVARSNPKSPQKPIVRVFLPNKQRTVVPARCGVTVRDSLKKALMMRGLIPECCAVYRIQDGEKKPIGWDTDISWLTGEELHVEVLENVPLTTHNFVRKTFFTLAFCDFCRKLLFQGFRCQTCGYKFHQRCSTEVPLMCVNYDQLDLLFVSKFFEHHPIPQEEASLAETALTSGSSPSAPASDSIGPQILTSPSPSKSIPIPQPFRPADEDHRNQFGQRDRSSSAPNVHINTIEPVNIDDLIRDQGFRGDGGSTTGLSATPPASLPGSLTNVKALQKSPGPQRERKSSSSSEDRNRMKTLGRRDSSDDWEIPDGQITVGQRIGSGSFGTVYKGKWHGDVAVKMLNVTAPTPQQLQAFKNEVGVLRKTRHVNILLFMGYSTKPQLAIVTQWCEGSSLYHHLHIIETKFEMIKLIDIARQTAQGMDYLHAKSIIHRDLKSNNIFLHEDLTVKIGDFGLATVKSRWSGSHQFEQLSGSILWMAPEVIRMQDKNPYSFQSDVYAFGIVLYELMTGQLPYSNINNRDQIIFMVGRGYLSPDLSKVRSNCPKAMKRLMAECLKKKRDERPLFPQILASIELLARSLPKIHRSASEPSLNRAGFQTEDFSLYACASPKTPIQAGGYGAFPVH

Compound	IC50 [1] [µM]	IC50 [2] [µM]	IC50 [3] [µM]
CCc1nc(-c2cccc(NC(=O)c3c(F)cccc3F)c2)c(-c2ccnc(Nc3cccc(CN4CCCC4)c3)n2)s1 [Example 115, N-{3-[2-Ethyl-5-(2-{[3-(1-pyrrolidinylmethyl)phenyl]amino}-4-pyrimidinyl)-1,3-thiazol-4-yl]phenyl}-2,6-difluorobenzamide]	> 1	0.1 to 1	0.1 to 1
Nc1nc(-c2cccc(C(=O)Nc3c(F)cccc3F)c2)c(-c2ccnc(Nc3cccc(CN4CCCC4)c3)n2)s1 [Example 77, 3-[2-Amino-5-(2-{[3-(1-pyrrolidinylmethyl)phenyl]amino}-4-pyrimidinyl)-1,3-thiazol-4-yl]-N-(2,6-difluorophenyl)benzamide]	0.1 to 1	0.1 to 1	
CCNc1nc(-c2cccc(NC(=O)C3CC3)c2)c(-c2ccnc(Nc3ccc(OCCN4CCCC4)c(Cl)c3)n2)s1 [Example 63, N-{3-[5-{2-[(3-Chloro-4-{[2-(1-pyrrolidinyl)ethyl]oxy}phenyl)amino]-4-pyrimidinyl}-2-(ethylamino)-1,3-thiazol-4-yl]phenyl}cyclopropanecarboxamide]	0.1 to 1	0.1 to 1	
Cc1nc(-c2cccc(NC(=O)c3c(F)cccc3F)c2)c(-c2ccnc(Nc3ccc(OC4CCN(C(=O)OCc5ccccc5)CC4)c(F)c3)n2)s1 [Example 106]			0.1 to 1
COc1cc(Nc2nccc(-c3sc(N)nc3-c3cccc(NC(=O)c4c(F)cccc4F)c3)n2)cc(OC)c1OC [Example 16, N-[3-(2-Amino-5-{2-[(3,4,5-trimethoxyphenyl)amino]pyrimidiN-4-yl}-1,3-thiazol-4-yl)phenyl]-2,6-difluorobenzamide]		0.1 to 1	
Cc1cc(-c2sc(N)nc2-c2cccc(NC(=O)c3c(F)cccc3F)c2)nc(Nc2cccc(F)c2)n1 [Example 48, N-[3-(2-Amino-5-{2-[(3-fluorophenyl)amino]-6-methyl-4-pyrimidinyl}-1,3-thiazol-4-yl)phenyl]-2,6-difluorobenzamide]			> 1
